# From ChEMBL document CHEMBL1201862, “PubChem BioAssay data set” (2004)
# Active and inactive are the calls of the source.
# Assays:
# [1] = molecular target: 5-hydroxytryptamine receptor 2A (Mus musculus, UniProt P35363); assay type: functional, cell-based;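 note: CHO-K1 cells with tagged receptor and beta-arrestin; agonist potency measured as compound-induced activation of the receptor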
# [2] = molecular target: T1, Zinc finger protein mex-5 (Caenorhabditis elegans, UniProt Q9XUB2); assay: MEX-5/TCR-2 RNA interaction inhibitors, dose response, biochemical, C. elegans, fluorescence polarization (AID 1960)
# T1 sequence (Q9XUB2 whole entry): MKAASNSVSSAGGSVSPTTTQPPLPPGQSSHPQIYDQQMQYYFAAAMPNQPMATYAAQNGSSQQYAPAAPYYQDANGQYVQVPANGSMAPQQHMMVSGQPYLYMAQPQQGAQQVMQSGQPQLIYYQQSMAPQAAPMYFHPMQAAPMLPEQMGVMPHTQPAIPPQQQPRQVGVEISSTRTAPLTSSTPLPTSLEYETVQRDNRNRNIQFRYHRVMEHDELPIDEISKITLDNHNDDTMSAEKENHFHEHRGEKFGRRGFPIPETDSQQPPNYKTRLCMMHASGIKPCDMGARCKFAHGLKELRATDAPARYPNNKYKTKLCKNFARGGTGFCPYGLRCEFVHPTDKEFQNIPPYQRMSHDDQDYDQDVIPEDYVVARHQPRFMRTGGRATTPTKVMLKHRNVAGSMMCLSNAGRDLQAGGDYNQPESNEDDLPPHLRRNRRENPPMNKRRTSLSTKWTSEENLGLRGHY
# [3] = molecular target: T2, RNA-binding protein pos-1 (Caenorhabditis elegans, UniProt G5EF15); assay: inhibitors of POS-1/mex-3 RNA binding, dose response, biochemical, fluorescence polarization (AID 1964);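 note: purified POS-1 fused to maltose binding protein made in E. coli; potency of compounds blocking POS-1 binding to fluorescent RNA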
# T2 sequence (G5EF15 whole entry): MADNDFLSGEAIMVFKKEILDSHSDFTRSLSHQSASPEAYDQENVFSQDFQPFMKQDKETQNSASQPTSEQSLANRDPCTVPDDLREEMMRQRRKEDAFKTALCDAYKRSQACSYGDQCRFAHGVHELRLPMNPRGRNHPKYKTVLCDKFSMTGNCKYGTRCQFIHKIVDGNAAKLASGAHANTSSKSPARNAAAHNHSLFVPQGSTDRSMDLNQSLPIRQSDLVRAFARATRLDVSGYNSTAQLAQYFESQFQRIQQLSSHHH
# [4] = molecular target: Mu-type opioid receptor (Homo sapiens, UniProt P35372); assay type: functional, cell-based;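 note: U2OS cells with beta-arrestin recruitment to OPRM1 by beta-gal complementation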
# [5] = HEp-2 cell cytotoxicity, dose response, cytotoxicity control for RSV inhibitor project, HTS (AID 2410); assay type: functional; details: human respiratory syncytial virus
# [6] = molecular target: Glucose-6-phosphate 1-dehydrogenase (Homo sapiens, UniProt P11413); assay: human G6PD enzyme inhibitors, dose response, selectivity assay for P. falciparum G6PD inhibitor project, biochemical, fluorescence (AID 504792); assay type: functional
# [7] = molecular target: Large T antigen (Simian virus 40, UniProt P03070); assay type: functional, Betapolyomavirus macacae;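 note: Confirmatory-stage PubChem screen for compounds that inhibit SV40 T antigen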
# [8] = molecular target: SWI/SNF-related matrix-associated actin-dependent regulator of chromatin subfamily A member 2 (Homo sapiens, UniProt P51531); assay: Luminescence-based cell-based high throughput dose response assay to identify activators of the function of SWI/SNF related, matrix associated, actin dependent regulator of chromatin, subfamily a, member 2 (SMARCA2, BRM).; assay type: functional
# [9] = Counterscreen for activators of the function of SWI/SNF related, matrix associated, actin dependent regulator of chromatin, subfamily a, member 2 (SMARCA2, BRM): Luminescence-based cell-based high throughput dose response assay to identify non-selective compounds using the VP16 reporter assay.; assay type: functional
# [10] = molecular target: Beta-galactosidase (Escherichia coli, UniProt Q8VNN2); assay: Dose response counterscreen for EBI2 assay utilizing the enzyme, b-galactosidase.; assay type: functional
# [11] = molecular target: T3, Heat shock factor protein 1 (Mus musculus, UniProt P38532); assay: HSF1 potentiators in luciferase reporter cells, confirmation, cell-based, NIH3T3, luminescence, dose retest (AID 435004); assay type: functional;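 note: stress induced by proteasome inhibitor MG132 added 30 min after compound; luciferase reporter driven by HSF1 response element in NIH3T3 cells; actives raise luminescence as potentiators of the MG132 stress response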
# T3 sequence (P38532 whole entry): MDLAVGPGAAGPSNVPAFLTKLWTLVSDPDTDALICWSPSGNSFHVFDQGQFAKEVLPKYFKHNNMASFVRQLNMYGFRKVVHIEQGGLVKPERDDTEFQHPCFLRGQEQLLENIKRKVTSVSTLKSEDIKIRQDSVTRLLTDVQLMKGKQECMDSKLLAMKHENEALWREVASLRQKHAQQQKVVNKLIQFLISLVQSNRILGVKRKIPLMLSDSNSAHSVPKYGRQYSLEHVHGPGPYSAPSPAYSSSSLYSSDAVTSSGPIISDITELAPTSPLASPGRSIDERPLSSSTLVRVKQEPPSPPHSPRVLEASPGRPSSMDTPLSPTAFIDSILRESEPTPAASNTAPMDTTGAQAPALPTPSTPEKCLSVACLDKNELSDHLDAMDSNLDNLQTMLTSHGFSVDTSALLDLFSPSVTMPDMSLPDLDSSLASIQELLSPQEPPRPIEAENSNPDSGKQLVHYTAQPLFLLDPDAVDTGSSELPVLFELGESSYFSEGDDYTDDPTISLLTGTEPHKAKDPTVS
# [12] = molecular target: T4, Corticotropin-releasing factor receptor 2/Corticotropin-releasing factor-binding protein (Homo sapiens, UniProt P24387+Q13324); assay: Dose Response confirmation of uHTS hits for small molecule antagonists of the CRF-binding protein and CRF-R2 receptor complex.; assay type: functional; details: read-out: IC50_Mean
# T4 sequence (Q13324 whole entry): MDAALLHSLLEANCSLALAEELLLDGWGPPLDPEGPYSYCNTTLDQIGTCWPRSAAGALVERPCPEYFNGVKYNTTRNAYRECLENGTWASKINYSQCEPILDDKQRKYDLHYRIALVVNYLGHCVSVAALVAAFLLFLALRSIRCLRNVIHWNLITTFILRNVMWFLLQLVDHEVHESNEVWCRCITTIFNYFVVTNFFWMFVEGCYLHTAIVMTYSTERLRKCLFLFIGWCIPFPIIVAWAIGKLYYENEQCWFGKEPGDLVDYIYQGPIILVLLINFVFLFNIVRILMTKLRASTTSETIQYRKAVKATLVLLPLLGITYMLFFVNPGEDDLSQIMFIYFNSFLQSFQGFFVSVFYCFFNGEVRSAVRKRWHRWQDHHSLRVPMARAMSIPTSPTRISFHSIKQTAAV
# T4 sequence (P24387 whole entry): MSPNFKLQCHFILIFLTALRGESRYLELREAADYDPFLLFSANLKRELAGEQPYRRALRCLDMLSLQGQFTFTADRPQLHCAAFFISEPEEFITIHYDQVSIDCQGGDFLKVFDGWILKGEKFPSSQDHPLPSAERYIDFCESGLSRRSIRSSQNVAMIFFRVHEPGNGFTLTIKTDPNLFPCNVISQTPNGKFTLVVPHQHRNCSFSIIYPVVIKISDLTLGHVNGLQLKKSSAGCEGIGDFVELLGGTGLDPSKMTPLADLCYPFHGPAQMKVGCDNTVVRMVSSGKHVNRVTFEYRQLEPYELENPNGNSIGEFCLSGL
# [13] = molecular target: T4, Corticotropin-releasing factor receptor 2/Corticotropin-releasing factor-binding protein; assay: activators of CRF receptor 2 with binding protein – uHTS hits, confirmation (AID 602473); assay type: functional; details: read-out: EC50_Mean
# [14] = molecular target: T5, Replicative DNA helicase DnaB (Mycobacterium tuberculosis, UniProt P9WMR3); assay: DnaB intein splicing inhibitors, dose response, biochemical, cell-free fluorescence (AID 449749); assay type: functional
# T5 sequence (P9WMR3 whole entry): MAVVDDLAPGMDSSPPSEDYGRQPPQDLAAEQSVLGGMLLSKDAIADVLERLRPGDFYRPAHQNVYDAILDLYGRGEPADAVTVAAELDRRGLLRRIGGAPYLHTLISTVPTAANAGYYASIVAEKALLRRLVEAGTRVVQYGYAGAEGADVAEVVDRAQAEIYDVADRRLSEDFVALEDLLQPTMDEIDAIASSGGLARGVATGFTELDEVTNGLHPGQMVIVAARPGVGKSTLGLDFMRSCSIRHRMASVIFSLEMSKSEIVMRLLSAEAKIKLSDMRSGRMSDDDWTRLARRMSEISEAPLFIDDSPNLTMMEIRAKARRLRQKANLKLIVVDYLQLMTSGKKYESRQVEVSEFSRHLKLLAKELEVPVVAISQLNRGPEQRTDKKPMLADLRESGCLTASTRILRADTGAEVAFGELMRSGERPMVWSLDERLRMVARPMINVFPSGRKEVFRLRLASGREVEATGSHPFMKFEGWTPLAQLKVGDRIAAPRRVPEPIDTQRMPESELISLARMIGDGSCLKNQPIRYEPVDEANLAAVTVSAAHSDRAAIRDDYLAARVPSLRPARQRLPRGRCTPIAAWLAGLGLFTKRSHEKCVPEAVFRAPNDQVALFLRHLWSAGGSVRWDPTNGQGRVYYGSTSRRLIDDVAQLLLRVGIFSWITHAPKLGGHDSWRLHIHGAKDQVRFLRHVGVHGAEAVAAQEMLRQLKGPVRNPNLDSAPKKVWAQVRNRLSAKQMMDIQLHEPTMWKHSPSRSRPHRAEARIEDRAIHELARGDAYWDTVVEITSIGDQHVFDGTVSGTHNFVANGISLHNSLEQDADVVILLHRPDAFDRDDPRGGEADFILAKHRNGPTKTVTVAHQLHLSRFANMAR
# [15] = molecular target: T6, Protein RecA (Mycobacterium tuberculosis, UniProt P9WHJ3); assay: Fluorescence Cell-Free Homogeneous Dose Retest to Identify Inhibitors of RecA-Intein Splicing Activity. [Related pubchem assays (depositor defined):AID2097, AID2223, AID489010, AID492950]; assay type: functional
# T6 sequence (P9WHJ3 whole entry): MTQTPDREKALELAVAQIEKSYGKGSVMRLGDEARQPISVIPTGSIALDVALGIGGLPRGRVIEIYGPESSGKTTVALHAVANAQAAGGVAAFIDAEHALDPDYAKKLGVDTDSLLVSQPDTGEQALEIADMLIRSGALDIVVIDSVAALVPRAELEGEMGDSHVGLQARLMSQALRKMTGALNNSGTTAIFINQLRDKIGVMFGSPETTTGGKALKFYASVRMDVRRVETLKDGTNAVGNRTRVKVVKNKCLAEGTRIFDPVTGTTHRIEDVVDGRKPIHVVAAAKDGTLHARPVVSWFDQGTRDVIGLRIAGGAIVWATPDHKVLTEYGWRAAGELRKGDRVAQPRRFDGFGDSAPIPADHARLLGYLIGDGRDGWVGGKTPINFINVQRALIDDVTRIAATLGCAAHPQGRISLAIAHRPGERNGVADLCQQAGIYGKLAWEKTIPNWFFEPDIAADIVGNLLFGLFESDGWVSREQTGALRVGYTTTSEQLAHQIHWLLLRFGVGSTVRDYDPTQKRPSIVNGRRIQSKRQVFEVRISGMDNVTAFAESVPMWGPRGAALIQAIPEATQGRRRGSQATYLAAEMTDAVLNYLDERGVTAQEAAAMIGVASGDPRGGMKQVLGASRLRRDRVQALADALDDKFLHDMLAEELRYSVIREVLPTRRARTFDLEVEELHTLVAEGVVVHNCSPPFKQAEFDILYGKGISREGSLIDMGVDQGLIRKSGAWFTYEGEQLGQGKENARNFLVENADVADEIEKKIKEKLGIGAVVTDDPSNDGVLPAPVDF
# [16] = molecular target: Cytochrome P450 2C19 (Homo sapiens, UniProt P33261); assay: Cytochrome panel assay with activity outcomes. Panel member name: p450-cyp2c19 Compounds with AC50 equal or less than 10 uM are considered active; assay type: functional
# [17] = molecular target: Cytochrome P450 2C9 (Homo sapiens, UniProt P11712)
# [18] = molecular target: T7, Cytochrome P450 1A2 (Homo sapiens, UniProt P05177);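 note: PubChem cytochrome P450 panel assay, CYP1A2 panel member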
# T7 sequence (P05177 whole entry): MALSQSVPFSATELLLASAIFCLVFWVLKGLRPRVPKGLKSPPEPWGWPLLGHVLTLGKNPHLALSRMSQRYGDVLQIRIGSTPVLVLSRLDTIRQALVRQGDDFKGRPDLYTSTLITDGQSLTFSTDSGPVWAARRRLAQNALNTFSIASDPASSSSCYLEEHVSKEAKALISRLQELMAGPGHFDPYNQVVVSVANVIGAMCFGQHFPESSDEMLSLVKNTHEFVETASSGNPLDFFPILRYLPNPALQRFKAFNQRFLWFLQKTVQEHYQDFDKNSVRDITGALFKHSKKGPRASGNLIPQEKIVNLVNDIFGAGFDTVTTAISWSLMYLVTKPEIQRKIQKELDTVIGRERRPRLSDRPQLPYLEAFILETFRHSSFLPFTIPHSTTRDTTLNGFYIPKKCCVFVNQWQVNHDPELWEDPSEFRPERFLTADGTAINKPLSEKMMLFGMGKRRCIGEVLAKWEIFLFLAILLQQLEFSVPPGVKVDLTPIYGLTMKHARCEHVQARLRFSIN
# [19] = molecular target: Cytochrome P450 2D6 (Homo sapiens, UniProt P10635);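 note: CYP2D6 member of a cytochrome P450 panel assay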
# [20] = inhibitors of PGC1a acetylation in cells, dose response, cell-based, cherry-picked samples (AID 720514); assay type: functional;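 note: potency may reflect raised or lowered acetylation signal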
# Sequence of Beta-galactosidase (Q8VNN2 whole entry): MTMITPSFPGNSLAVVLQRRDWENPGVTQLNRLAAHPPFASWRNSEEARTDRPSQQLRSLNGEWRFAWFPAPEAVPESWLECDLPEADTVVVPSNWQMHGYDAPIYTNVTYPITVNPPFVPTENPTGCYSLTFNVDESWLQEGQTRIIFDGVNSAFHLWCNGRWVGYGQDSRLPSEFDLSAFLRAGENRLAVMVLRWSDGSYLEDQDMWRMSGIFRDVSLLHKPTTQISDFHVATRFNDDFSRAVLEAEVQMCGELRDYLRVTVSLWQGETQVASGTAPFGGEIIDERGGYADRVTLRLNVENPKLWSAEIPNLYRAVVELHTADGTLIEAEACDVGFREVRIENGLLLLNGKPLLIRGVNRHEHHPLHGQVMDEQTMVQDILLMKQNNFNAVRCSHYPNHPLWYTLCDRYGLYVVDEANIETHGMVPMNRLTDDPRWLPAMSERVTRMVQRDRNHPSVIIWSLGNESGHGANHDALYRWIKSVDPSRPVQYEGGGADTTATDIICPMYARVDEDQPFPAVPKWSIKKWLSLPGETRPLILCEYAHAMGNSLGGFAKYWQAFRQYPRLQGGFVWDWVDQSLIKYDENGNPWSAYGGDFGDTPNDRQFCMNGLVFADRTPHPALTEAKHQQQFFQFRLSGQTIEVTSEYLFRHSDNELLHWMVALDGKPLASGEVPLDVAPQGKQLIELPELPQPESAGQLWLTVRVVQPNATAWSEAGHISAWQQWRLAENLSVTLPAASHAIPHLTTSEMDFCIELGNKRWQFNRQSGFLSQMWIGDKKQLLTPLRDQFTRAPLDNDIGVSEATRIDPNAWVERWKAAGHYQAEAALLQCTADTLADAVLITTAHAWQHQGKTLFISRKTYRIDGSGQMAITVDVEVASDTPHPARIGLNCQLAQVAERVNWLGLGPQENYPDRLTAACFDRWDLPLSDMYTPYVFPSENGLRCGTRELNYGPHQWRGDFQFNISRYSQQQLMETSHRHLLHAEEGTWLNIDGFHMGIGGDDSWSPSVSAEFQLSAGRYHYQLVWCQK
# Sequence of Mu-type opioid receptor (P35372 whole entry): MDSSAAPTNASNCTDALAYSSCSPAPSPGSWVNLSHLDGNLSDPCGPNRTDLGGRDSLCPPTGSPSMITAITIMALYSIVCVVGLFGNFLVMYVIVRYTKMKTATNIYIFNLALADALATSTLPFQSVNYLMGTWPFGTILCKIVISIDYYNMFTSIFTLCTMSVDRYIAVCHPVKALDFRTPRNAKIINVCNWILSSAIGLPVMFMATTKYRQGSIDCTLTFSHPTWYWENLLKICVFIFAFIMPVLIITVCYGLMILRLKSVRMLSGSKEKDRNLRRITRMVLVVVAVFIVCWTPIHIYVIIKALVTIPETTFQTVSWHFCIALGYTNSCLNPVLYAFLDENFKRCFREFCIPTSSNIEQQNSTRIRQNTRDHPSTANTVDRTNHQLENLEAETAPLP
# Sequence of 5-hydroxytryptamine receptor 2A (P35363 whole entry): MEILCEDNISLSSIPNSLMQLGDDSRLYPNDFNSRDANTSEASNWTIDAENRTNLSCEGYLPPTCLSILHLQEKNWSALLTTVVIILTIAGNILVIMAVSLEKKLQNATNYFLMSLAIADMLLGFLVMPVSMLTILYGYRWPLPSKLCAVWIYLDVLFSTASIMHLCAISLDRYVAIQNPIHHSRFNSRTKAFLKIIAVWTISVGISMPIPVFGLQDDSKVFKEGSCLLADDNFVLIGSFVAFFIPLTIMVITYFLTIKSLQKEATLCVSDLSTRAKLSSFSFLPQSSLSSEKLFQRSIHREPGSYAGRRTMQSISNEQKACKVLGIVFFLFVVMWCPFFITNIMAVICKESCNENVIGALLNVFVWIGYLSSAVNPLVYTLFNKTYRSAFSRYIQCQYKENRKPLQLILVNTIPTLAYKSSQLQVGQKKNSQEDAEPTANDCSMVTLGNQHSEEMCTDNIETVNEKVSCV
# Sequence of Cytochrome P450 2D6 (P10635 whole entry): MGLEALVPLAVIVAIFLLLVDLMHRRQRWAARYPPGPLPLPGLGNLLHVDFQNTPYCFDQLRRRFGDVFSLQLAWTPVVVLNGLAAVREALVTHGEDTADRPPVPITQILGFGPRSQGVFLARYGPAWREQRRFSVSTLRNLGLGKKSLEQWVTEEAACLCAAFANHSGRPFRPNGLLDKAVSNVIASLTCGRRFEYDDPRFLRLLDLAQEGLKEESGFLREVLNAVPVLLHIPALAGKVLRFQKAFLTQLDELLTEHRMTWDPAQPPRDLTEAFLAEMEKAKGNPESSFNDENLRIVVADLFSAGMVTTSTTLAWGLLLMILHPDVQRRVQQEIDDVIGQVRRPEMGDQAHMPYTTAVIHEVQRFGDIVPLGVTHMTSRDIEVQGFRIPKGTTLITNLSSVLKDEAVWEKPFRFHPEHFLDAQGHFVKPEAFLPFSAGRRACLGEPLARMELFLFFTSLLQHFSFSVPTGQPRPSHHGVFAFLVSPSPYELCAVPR
# Sequence of Large T antigen (P03070 whole entry): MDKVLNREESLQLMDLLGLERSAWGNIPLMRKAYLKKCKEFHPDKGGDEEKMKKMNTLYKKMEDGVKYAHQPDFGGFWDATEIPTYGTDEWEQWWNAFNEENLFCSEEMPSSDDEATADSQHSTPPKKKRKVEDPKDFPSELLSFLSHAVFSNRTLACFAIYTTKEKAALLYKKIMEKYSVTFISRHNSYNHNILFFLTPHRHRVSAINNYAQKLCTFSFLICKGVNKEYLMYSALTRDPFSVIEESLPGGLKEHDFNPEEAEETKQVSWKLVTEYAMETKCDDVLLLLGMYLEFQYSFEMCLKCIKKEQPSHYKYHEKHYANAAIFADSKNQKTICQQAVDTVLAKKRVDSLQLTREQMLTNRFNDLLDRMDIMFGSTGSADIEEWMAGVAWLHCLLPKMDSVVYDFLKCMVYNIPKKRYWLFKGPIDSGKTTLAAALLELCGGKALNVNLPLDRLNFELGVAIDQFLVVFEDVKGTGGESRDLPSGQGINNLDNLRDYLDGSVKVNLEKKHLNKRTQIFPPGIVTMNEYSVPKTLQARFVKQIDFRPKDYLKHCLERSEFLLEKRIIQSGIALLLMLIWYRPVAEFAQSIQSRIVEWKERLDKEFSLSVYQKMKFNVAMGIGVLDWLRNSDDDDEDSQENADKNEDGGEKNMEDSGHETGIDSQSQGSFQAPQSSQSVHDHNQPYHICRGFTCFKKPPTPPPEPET
# Sequence of Cytochrome P450 2C19 (P33261 whole entry): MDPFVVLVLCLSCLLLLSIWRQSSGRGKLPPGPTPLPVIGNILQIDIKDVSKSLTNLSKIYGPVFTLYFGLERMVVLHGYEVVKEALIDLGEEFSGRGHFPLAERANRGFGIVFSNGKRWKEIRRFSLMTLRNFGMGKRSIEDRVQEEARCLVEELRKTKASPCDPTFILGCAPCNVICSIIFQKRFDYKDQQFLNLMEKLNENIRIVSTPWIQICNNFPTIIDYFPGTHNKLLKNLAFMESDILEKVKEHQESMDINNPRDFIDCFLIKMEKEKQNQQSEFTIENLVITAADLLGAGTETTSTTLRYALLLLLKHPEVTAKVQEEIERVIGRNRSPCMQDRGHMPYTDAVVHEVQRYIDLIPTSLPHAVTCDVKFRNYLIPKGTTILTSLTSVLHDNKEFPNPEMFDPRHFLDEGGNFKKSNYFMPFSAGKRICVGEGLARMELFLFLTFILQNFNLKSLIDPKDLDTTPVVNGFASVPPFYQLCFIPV
# Sequence of Glucose-6-phosphate 1-dehydrogenase (P11413 whole entry): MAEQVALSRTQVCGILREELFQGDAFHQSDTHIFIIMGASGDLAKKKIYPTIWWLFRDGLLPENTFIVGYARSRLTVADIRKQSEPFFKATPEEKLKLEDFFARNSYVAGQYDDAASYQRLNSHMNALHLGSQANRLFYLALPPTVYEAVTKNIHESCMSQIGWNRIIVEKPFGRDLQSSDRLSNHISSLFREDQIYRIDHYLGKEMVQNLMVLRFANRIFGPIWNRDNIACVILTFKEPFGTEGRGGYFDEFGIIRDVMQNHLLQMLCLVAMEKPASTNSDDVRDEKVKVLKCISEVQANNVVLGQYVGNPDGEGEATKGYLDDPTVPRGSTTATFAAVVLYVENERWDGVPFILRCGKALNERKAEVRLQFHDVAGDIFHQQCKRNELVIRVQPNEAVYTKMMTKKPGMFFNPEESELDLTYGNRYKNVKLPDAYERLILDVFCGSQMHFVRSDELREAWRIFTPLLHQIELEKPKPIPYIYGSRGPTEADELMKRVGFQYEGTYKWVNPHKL
# Sequence of Cytochrome P450 2C9 (P11712 whole entry): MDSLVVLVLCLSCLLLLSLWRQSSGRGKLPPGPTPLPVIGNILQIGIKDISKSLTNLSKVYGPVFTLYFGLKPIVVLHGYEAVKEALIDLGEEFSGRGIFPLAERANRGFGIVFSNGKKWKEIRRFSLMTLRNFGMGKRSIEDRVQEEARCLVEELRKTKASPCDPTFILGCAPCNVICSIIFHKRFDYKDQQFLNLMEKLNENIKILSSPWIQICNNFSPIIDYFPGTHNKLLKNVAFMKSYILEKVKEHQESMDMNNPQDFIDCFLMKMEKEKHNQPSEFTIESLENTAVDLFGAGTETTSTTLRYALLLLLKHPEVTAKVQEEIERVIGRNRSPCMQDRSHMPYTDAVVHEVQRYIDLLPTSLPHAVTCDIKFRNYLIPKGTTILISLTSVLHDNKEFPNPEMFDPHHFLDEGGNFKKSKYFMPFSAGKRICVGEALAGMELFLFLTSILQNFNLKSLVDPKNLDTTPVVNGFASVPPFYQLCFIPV
structure (smiles),measurement,setting,value
CN1CCc2cc(O)cc3c2[C@H]1Cc1ccc(O)c(O)c1-3,EC50,[1],0.0112 µM (active)
same,EC50,[2],3.17 µM (active)
same,EC50,[3],5.41 µM (active)
same,EC50,[4],92.4 µM (inactive)
same,CC50,[5],16 µM (active)
same,IC50,[6],63 µM (inactive)
same,IC50,[7],9.43 µM (active)
Cc1ccc(C(=O)CNc2ccc(Cl)cc2)cc1,EC50,[8],> 91.2 µM (inactive)
same,EC50,[9],> 91.2 µM (inactive)
same,IC50,[10],130 µM (inactive)
same,EC50,[11],> 260 µM (inactive)
CCC(C)c1ccc(NC(=S)Nc2ccc(OC)cc2)cc1 (configuration not stated),IC50,[12],> 47.1 µM (inactive)
same,IC50,[10],> 80 µM (inactive)
same,EC50,[13],> 53 µM (inactive)
COc1ccc(-c2cc(C(=O)N3CCN(C(c4ccccc4)c4ccccc4)CC3)no2)cc1,IC50,[10],> 80 µM (inactive)
CC(C)C[C@H]1C(=O)N2CCC[C@H]2[C@]2(O)O[C@](NC(=O)[C@@H]3C=C4c5cccc6[nH]c(Br)c(c56)CC4N(C)C3)(C(C)C)C(=O)N12 (some centres not stated),EC50,[1],0.0038 µM (active)
same,EC50,[4],92.5 µM (inactive)
same,AC50,[14],> 380 µM (inactive)
same,EC50,[15],> 380 µM (inactive)
CCS(=O)(=O)N1CCC(C(=O)NCCCN2CCN(c3ccccc3F)CC2)CC1,AC50,[16],inconclusive
same,EC50,[1],76.1 µM (inactive)
same,EC50,[4],92.5 µM (inactive)
same,AC50,[17],inconclusive
same,AC50,[18],1.26 µM (inconclusive)
same,AC50,[19],15.8 µM (inconclusive)
Cc1ccc2[nH]c(C(=O)N3CCN(C(c4ccccc4)c4ccccc4)CC3)cc2c1,IC50,[10],> 80 µM (inactive)
C[C@@H]1CN([C@@H](C)CO)C(=O)c2cc(NC(=O)CCCN(C)C)ccc2O[C@@H](C)CCCCO[C@@H]1CN(C)Cc1ccc(C(F)(F)F)cc1,AC50,[20],37.9 µM (active)
